One block for each compound: values may come before it.
Experiments:
Assay in all cases: radiometric filter-binding kinase assay
[1] = target: PTK6 (human) (UniProt Q13882)
[2] = target: ABL1 (human) (UniProt P00519)
[3] = target: ZAP70 (human) (UniProt P43403)
[4] = target: STK33 (human) (UniProt Q9BYT3)
[5] = target: STK16 (human) (UniProt O75716)
[6] = target: PLK1 (human) (UniProt P53350)
[7] = target: TEK (human) (UniProt Q02763)
[8] = target: PRKCG (human) (UniProt P05129)
[9] = target: TSSK1B (human) (UniProt Q9BXA7); details: compound 100.0 µM
[10] = target: TLK1 (human) (UniProt Q9UKI8)
TLK1 (human), sequence (Q9UKI8 whole entry, looked up): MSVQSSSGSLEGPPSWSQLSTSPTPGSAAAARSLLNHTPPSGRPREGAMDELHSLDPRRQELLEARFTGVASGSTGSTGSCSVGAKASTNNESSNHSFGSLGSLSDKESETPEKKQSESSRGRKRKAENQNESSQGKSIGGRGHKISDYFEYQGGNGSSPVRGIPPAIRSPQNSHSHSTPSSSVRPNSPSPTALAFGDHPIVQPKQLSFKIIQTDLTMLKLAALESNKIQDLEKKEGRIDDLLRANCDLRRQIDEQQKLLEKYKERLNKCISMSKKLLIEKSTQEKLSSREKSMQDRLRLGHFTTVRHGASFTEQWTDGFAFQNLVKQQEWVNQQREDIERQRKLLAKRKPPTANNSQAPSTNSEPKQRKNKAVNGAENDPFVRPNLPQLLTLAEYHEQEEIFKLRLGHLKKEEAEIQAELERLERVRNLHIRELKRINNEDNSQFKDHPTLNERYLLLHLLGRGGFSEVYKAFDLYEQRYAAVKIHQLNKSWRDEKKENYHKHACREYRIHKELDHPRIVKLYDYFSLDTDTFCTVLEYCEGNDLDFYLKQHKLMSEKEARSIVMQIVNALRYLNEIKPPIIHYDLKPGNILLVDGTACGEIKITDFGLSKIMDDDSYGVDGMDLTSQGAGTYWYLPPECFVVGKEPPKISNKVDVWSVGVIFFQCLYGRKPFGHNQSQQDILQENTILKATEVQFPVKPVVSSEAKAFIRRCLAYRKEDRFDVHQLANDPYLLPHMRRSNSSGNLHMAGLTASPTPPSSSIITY

[11] = target: TTBK1 (human) (UniProt Q5TCY1); details: compound 100.0 µM
[12] = target: IRAK1 (human) (UniProt P51617)
[13] = target: EIF2AK3 (human) (UniProt Q9NZJ5)
[14] = target: TESK1 (human) (UniProt Q15569); details: compound 100.0 µM
[15] = test system: OXSR1 (human), O95747 [T185E]
OXSR1 (human), O95747 [T185E], sequence (O95747 whole entry T185E, looked up): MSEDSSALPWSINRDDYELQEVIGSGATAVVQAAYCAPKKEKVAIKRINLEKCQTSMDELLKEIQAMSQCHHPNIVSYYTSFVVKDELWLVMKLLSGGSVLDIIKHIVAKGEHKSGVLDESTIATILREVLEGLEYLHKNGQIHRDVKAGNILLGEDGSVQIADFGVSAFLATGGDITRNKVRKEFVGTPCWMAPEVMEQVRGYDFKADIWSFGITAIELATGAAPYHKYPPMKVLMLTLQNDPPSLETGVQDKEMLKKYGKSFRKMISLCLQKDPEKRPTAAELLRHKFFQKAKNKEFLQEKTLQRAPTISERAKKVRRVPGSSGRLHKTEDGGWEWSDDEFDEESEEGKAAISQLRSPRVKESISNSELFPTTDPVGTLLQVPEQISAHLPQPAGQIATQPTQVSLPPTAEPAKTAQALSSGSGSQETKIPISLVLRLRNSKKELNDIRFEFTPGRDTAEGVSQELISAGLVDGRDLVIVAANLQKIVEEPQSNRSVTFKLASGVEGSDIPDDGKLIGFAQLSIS

STK16 (human), sequence (O75716 whole entry, looked up): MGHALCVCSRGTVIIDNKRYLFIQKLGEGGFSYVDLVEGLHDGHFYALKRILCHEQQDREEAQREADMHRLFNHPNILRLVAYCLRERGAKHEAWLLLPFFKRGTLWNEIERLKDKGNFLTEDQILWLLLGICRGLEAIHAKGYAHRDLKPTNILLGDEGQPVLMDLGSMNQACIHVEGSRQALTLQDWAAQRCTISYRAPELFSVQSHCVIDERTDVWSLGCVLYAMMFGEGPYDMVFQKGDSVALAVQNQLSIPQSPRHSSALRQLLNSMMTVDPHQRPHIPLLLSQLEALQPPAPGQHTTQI
STK33 (human), sequence (Q9BYT3 whole entry, looked up): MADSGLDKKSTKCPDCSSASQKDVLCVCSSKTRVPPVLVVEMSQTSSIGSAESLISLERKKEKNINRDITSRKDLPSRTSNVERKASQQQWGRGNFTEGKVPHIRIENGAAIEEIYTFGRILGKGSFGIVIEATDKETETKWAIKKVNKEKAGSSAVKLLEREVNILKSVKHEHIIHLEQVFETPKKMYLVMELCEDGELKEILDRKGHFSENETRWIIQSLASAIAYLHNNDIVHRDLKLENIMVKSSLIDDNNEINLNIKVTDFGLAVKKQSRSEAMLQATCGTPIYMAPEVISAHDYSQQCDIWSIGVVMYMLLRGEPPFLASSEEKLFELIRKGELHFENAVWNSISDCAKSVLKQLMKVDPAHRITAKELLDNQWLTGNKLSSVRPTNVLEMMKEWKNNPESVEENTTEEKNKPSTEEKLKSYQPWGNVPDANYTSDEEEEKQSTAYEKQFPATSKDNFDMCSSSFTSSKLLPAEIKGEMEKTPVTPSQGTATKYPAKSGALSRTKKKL
PLK1 (human), sequence (P53350 whole entry, looked up): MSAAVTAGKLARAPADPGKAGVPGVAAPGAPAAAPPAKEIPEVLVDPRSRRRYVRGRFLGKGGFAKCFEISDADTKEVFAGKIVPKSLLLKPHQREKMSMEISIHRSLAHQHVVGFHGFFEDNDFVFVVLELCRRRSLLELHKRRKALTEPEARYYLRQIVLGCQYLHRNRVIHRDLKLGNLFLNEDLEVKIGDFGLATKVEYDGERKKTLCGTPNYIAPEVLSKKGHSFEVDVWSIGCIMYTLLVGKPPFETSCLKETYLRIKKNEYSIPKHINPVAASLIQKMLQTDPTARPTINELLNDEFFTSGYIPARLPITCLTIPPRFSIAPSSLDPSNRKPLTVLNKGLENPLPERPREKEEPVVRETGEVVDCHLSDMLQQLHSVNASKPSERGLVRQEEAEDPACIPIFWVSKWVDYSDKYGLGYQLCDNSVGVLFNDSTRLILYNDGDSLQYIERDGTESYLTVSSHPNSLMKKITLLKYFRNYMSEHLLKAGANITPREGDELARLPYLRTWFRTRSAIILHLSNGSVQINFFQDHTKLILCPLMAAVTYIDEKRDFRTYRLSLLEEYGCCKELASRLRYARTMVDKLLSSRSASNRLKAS
TEK (human), sequence (Q02763 whole entry, looked up): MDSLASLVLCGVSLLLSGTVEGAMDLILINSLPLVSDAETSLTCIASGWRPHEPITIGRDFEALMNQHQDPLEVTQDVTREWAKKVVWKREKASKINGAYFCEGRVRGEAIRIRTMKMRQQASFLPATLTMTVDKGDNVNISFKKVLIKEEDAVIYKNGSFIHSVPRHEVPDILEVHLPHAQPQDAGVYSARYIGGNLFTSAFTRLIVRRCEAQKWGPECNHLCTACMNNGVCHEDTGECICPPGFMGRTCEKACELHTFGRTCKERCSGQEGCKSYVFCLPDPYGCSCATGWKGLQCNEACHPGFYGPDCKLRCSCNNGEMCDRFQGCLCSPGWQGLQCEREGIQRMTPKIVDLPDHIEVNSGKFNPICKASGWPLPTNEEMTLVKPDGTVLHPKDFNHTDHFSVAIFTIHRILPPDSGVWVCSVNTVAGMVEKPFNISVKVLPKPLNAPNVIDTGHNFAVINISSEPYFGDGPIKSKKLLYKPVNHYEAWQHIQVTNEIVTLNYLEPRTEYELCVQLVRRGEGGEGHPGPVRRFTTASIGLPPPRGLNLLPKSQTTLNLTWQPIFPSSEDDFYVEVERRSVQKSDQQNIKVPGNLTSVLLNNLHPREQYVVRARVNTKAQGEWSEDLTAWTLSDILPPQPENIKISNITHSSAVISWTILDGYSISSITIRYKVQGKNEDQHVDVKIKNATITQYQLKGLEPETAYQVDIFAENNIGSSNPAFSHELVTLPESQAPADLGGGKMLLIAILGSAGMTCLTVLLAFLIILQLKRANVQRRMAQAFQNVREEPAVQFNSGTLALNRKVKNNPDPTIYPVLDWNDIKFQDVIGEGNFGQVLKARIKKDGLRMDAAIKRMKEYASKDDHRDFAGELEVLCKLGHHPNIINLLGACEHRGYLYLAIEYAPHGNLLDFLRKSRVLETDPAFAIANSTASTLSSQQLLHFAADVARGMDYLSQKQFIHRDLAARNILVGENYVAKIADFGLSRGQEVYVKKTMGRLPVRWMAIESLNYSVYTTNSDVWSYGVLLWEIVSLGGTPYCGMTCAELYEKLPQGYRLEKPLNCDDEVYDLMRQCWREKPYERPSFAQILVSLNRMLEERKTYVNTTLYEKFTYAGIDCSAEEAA
ABL1 (human), sequence (P00519 whole entry, looked up): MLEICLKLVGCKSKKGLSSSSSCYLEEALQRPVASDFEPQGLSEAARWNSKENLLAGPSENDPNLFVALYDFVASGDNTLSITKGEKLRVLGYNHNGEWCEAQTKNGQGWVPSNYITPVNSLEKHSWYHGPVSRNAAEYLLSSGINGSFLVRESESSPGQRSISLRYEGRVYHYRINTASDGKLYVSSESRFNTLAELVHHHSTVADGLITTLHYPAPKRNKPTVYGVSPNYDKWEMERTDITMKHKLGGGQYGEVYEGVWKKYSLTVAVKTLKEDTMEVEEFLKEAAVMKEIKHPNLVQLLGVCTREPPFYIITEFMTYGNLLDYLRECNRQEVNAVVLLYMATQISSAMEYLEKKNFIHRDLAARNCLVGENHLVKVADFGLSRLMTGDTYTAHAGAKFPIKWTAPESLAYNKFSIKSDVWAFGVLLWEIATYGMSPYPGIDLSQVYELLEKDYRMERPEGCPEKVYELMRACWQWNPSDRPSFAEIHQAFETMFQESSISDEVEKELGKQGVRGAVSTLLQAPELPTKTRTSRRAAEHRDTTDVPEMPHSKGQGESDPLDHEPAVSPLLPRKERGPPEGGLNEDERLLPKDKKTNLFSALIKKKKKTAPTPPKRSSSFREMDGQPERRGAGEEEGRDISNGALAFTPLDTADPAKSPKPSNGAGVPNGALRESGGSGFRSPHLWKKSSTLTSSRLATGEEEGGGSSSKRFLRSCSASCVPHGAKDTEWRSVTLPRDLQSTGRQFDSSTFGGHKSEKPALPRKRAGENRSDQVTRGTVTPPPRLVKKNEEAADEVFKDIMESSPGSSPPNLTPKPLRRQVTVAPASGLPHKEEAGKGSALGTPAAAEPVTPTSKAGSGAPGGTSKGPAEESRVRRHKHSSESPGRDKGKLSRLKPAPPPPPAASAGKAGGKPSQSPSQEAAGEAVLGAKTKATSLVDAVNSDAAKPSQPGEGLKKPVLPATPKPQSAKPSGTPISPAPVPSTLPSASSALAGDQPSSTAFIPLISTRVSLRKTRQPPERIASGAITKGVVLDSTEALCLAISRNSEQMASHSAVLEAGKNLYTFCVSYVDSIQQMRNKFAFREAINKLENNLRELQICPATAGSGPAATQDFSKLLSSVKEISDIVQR

residual activity ([1]; compound 0.1 µM): 78%
residual activity ([1]; compound 1.0 µM): 21%
residual activity ([1]; compound 10.0 µM): 5%
residual activity ([2]; compound 0.1 µM): 43%
residual activity ([2]; compound 1.0 µM): 6%
residual activity ([2]; compound 10.0 µM): 4%
residual activity ([3]; compound 0.1 µM): 86%
residual activity ([3]; compound 1.0 µM): 69%
residual activity ([3]; compound 10.0 µM): 101%
residual activity ([4]; compound 0.1 µM): 81%
residual activity ([4]; compound 1.0 µM): 44%
residual activity ([4]; compound 10.0 µM): 11%
residual activity ([5]; compound 0.1 µM): 97%
residual activity ([5]; compound 1.0 µM): 98%
residual activity ([5]; compound 10.0 µM): 84%
residual activity ([6]; compound 0.1 µM): 97%
residual activity ([6]; compound 1.0 µM): 100%
residual activity ([6]; compound 10.0 µM): 91%
residual activity ([7]; compound 0.1 µM): 102%
residual activity ([7]; compound 1.0 µM): 86%
residual activity ([7]; compound 10.0 µM): 30%
residual activity ([8]; compound 0.1 µM): 99%
residual activity ([8]; compound 1.0 µM): 97%
residual activity ([8]; compound 10.0 µM): 92%
SMILES: c1ccc2c(-c3cnn4cc(-c5ccc(N6CCNCC6)cc5)cnc34)ccnc2c1

residual activity ([1]; compound 10.0 µM): 96%
residual activity ([2]; compound 10.0 µM): 101%
residual activity ([3]; compound 10.0 µM): 84%
residual activity ([4]; compound 10.0 µM): 98%
residual activity ([5]; compound 10.0 µM): 102%
residual activity ([6]; compound 10.0 µM): 97%
residual activity ([7]; compound 10.0 µM): 98%
residual activity ([8]; compound 10.0 µM): 114%
SMILES: CC(C)C[C@H](NC(=O)CNC(=O)c1cc(Cl)ccc1Cl)B1OC(=O)CC(CC(=O)O)(C(=O)O)O1 (stereo not given in full)

residual activity ([1]; compound 100.0 µM): 100%
residual activity [9]: 107%
residual activity ([10]; compound 100.0 µM): 108%
residual activity ([2]; compound 100.0 µM): 92%
residual activity [11]: 94%
residual activity ([3]; compound 100.0 µM): 103%
residual activity ([12]; compound 100.0 µM): 104%
residual activity ([13]; compound 100.0 µM): 94%
residual activity [14]: 73%
residual activity ([4]; compound 100.0 µM): 107%
residual activity ([5]; compound 100.0 µM): 111%
residual activity ([15]; compound 100.0 µM): 97%
residual activity ([6]; compound 100.0 µM): 79%
residual activity ([7]; compound 100.0 µM): 103%
residual activity ([8]; compound 100.0 µM): 55%
SMILES: Cc1cc(N=Nc2cc(S(=O)(=O)O)c(C)cc2C)c(N)cc1O

residual activity ([1]; compound 0.01 µM): 114%
residual activity ([1]; compound 0.1 µM): 130%
residual activity ([1]; compound 1.0 µM): 124%
residual activity ([10]; compound 0.01 µM): 107%
residual activity ([10]; compound 0.1 µM): 99%
residual activity ([10]; compound 1.0 µM): 90%
residual activity ([2]; compound 0.01 µM): 95%
residual activity ([2]; compound 1.0 µM): 97%
residual activity ([3]; compound 0.01 µM): 76%
residual activity ([3]; compound 0.1 µM): 77%
residual activity ([3]; compound 1.0 µM): 84%
residual activity ([12]; compound 0.01 µM): 94%
residual activity ([12]; compound 0.1 µM): 100%
residual activity ([12]; compound 1.0 µM): 89%
residual activity ([13]; compound 0.01 µM): 109%
residual activity ([13]; compound 0.1 µM): 117%
residual activity ([13]; compound 1.0 µM): 104%
residual activity ([4]; compound 0.01 µM): 97%
residual activity ([4]; compound 0.1 µM): 106%
residual activity ([4]; compound 1.0 µM): 88%
residual activity ([5]; compound 0.01 µM): 82%
residual activity ([5]; compound 0.1 µM): 96%
residual activity ([5]; compound 1.0 µM): 83%
residual activity ([15]; compound 0.01 µM): 83%
residual activity ([15]; compound 0.1 µM): 114%
residual activity ([15]; compound 1.0 µM): 92%
residual activity ([6]; compound 0.01 µM): 104%
residual activity ([6]; compound 0.1 µM): 128%
residual activity ([6]; compound 1.0 µM): 103%
residual activity ([7]; compound 0.01 µM): 94%
residual activity ([7]; compound 0.1 µM): 103%
residual activity ([7]; compound 1.0 µM): 69%
residual activity ([8]; compound 0.01 µM): 101%
residual activity ([8]; compound 0.1 µM): 115%
residual activity ([8]; compound 1.0 µM): 106%
SMILES: O=C(Nc1nc2cc(C(F)(F)F)cc(NC3CC3)n2n1)c1cccnc1

residual activity ([1]; compound 10.0 µM): 79%
residual activity ([10]; compound 10.0 µM): 108%
residual activity ([2]; compound 10.0 µM): 107%
residual activity ([3]; compound 10.0 µM): 95%
residual activity ([12]; compound 10.0 µM): 84%
residual activity ([13]; compound 10.0 µM): 83%
residual activity ([4]; compound 10.0 µM): 119%
residual activity ([15]; compound 10.0 µM): 115%
residual activity ([6]; compound 10.0 µM): 92%
residual activity ([7]; compound 10.0 µM): 128%
residual activity ([8]; compound 10.0 µM): 99%
SMILES: CCOC(=O)c1ccc(N2NC(=O)/C(=C/c3ccc([N+](=O)[O-])o3)C2=O)cc1

residual activity ([1]; compound 1.0 µM): 115%
residual activity ([1]; compound 10.0 µM): 121%
residual activity ([10]; compound 1.0 µM): 96%
residual activity ([10]; compound 10.0 µM): 104%
residual activity ([2]; compound 1.0 µM): 103%
residual activity ([2]; compound 10.0 µM): 98%
residual activity ([3]; compound 1.0 µM): 84%
residual activity ([3]; compound 10.0 µM): 100%
residual activity ([12]; compound 1.0 µM): 84%
residual activity ([12]; compound 10.0 µM): 89%
residual activity ([13]; compound 1.0 µM): 96%
residual activity ([13]; compound 10.0 µM): 105%
residual activity ([4]; compound 10.0 µM): 107%
residual activity ([5]; compound 1.0 µM): 85%
residual activity ([5]; compound 10.0 µM): 101%
residual activity ([15]; compound 1.0 µM): 95%
residual activity ([15]; compound 10.0 µM): 93%
residual activity ([6]; compound 1.0 µM): 81%
residual activity ([6]; compound 10.0 µM): 92%
residual activity ([7]; compound 10.0 µM): 96%
residual activity ([8]; compound 1.0 µM): 91%
residual activity ([8]; compound 10.0 µM): 99%
SMILES: O=C(NOC[C@H](O)CO)c1ccc(F)c(F)c1Nc1ccc(I)cc1Cl
